Tests used:
[1] = mouse, in vivo
Text: Mice (Mus musculus) were bred in the Netherlands Cancer Institute and housed and handled according to institutional guidelines complying with Dutch and EU legislation. Animals used were WT, Abcb1a/1b^-/- [39], Abcg2^-/- [40], Abcb1a/1b;Abcg2^-/- [41], Cyp3a^-/- [42], and Oatp1a/1b^-/- [43] mice of a >99% FVB/N strain background. Homozygous CYP3A4 humanized transgenic mice (Cyp3aXAV) were generated by cross-breeding of transgenic mice with stable human CYP3A4 expression in the liver or intestine, respectively, in a Cyp3a^-/- background. Proper functionality of the knockout and transgenic strains was monitored by regular testing with a variety of drug substrates. All the mice used were between 10 and 15 weeks of age. Animals were kept in a temperature-controlled environment with a 12 h light/12 h dark cycle and received a standard diet (Transbreed, SDS Diets, Technilab-BMI, The Netherlands) and acidified water ad libitum. Depending on the type of experiment, 5 or 6 mice were tested in each experimental group. All experimental animal protocols, including power calculations, were ethically assessed and designed under the nationally approved DEC/CCD project AVD301002016595 (approval date, 10 August 2016) and evaluated and approved by the institutional animal care and use committee (IACUC) of the Netherlands Cancer Institute.
EAI045 was dissolved in dimethyl sulfoxide (DMSO) at a concentration of […], and then diluted with a mixture of polysorbate 80/ethanol (1:1, v/v), and further diluted with 5% (w/v) glucose in water to yield a concentration of 2 mg/mL. Final concentrations for DMSO, polysorbate 80, ethanol, and glucose in the dosing solution were 5%, 2.5%, 2.5%, and 4.5% (v/v/v/w), respectively. Elacridar hydrochloride was dissolved in DMSO at a concentration of 53 mg/mL, then diluted with a mixture of polysorbate 80, ethanol, and water [20:13:67, (v/v/v)] to yield a concentration of 5 mg/mL elacridar. The final oral dose of elacridar was 50 mg/kg body weight. All dosing solutions were prepared freshly on the day of experiment.
To minimize variation in absorption, mice were fasted for about 3 h before EAI045 was administered by gavage into the stomach (n = 5–6), using a blunt-ended needle. EAI045 was administered orally at dose of 20 mg/kg. Elacridar was administered orally at a dose of 50 mg/kg, 3 h prior to oral EAI045 administration. For the 24- or 4-h experiments, tail vein blood samplings were performed at 5 min, 30 min, 1, 2, 4, and 8 h, or 5 min, 15 min, 30 min, 1, and 2 h time points after oral administration of EAI045, respectively, using microvettes containing heparin. For the 30 min experiments, blood samplings were performed at 5, 10, and 20 min from the tail vein. At the last time point (24 h, 4 h, or 30 min), mice were anesthetized with isoflurane and blood was collected by cardiac puncture. Then, mice were sacrificed by cervical dislocation and brain, liver, spleen, kidneys, lung, small intestine with content (SIWC), and testis were rapidly removed and weighed. Tissues were homogenized on ice in appropriate volumes of 2% (w/v) BSA. Blood samples were centrifuged at 9000× g for 6 min at 4 °C immediately after collection. All samples were stored at −30 °C until analysis.

[2] = tested on: L858R/T790M EGFR mutant kinase; design: method as in PMID 27251290; conditions: cited from earlier work

- kidney-to-plasma ratio, fold change [1]: 1.6 fold
- systemic exposure of EAI045 ([1]; po, 20 mg/kg): not changed
SMILES: O=C(Nc1nccs1)C(c1cc(F)ccc1O)N1Cc2ccccc2C1=O (stereo not drawn) [EAI045]
- inhibition of the EGFR mutant relative to wild-type EGFR [2]: most selective inhibition

Reference: paper PMC9505538, “P-Glycoprotein (MDR1/ABCB1) Restricts Brain Accumulation of the Novel EGFR Inhibitor EAI045 and Oral Elacridar Coadministration Enhances Its Brain Accumulation and Oral Exposure” (Pharmaceuticals, 2022)
